{"source": "paper PMC4468608", "about": "“A distinct p53 target gene set predicts for response to the selective p53–HDM2 inhibitor NVP-CGM097” (eLife, 2015)", "system": "cell lines from the Cancer Cell Line Encyclopedia (CCLE)", "experiment": "High-throughput cell viability assay, CCLE cell line panel (n = 356)", "format": "cell-based, human", "details": "Homo sapiens", "experimental": "Cell lines were partitioned into sensitive and insensitive groups based on compound potency (IC50). […] All other cell lines were obtained from ATCC (American Type Culture Collection), DSMZ (Deutsche Sammlung von Mikroorganismen und Zellkulturen), and HSRRB (Health Science Research Resources Bank) and cultured in RPMI or Dulbecco's modified Eagle's medium plus 10% FBS (Invitrogen, Carlsbad, CA) at 37°C, 5% CO2.", "note": "Read-outs that look alike come from different tables or passages of the source."}
{"smiles": "COc1cc2c(cc1OC(C)C)[C@H](c1ccc(Cl)cc1)N(c1ccc(N(C)C[C@H]3CC[C@H](N4CCNC(=O)C4)CC3)cc1)C(=O)C2", "note": "[NVP-CFC218]", "values": [{"measurement": "IC50", "setting": "A 172, read-out: NVP- CFC218 IC50 (µM), cell line A172, central_nervous_system, TP53 WT", "result": "> 8", "unit": "µM"}, {"measurement": "IC50", "setting": "A204, A-204, TP53 WT", "result": 2.18, "unit": "µM"}, {"measurement": "IC50", "setting": "A2780, A2780, TP53 WT", "result": 2.24, "unit": "µM"}, {"measurement": "IC50", "setting": "A-375, A-375, TP53 WT", "result": 2.65, "unit": "µM"}, {"measurement": "IC50", "setting": "ACHN, TP53 WT", "result": 2.03, "unit": "µM"}, {"measurement": "IC50", "setting": "AMO1, AMO-1, TP53 WT", "result": 2.01, "unit": "µM"}, {"measurement": "IC50", "setting": "AN3-CA, AN3 CA, TP53 MUT", "result": "> 8", "unit": "µM"}, {"measurement": "IC50", "setting": "ASPC1, AsPC-1, TP53 MUT", "result": "> 8", "unit": "µM"}, {"measurement": "IC50", "setting": "AU565, AU565, TP53 MUT", "result": "> 8", "unit": "µM"}, {"measurement": "IC50", "setting": "BCPAP, B-CPAP, TP53 MUT", "result": "> 8", "unit": "µM"}, {"measurement": "IC50", "setting": "BDCM, TP53 WT", "result": 0.7, "unit": "µM"}, {"measurement": "IC50", "setting": "BEN, TP53 MUT", "result": "> 8", "unit": "µM"}, {"measurement": "IC50", "setting": "BFTC-905, BFTC-905, TP53 MUT", "result": "> 8", "unit": "µM"}, {"measurement": "IC50", "setting": "BFTC-909, BFTC-909, TP53 MUT", "result": "> 8", "unit": "µM"}, {"measurement": "IC50", "setting": "BHY, TP53 MUT", "result": "> 8", "unit": "µM"}, {"measurement": "IC50", "setting": "BICR 6, TP53 MUT", "result": "> 8", "unit": "µM"}, {"measurement": "IC50", "setting": "BL-41, BL-41, TP53 MUT", "result": "> 8", "unit": "µM"}, {"measurement": "IC50", "setting": "BL-70, TP53 MUT", "result": "> 8", "unit": "µM"}, {"measurement": "IC50", "setting": "BT-20, BT-20, TP53 MUT", "result": "> 8", "unit": "µM"}, {"measurement": "IC50", "setting": "BT-474, BT-474, TP53 MUT", "result": "> 8", "unit": "µM"}, {"measurement": "IC50", "setting": "BT-549, BT-549, TP53 MUT", "result": "> 8", "unit": "µM"}, {"measurement": "IC50", "setting": "BXPC-3, BxPC-3, TP53 MUT", "result": "> 8", "unit": "µM"}, {"measurement": "IC50", "setting": "CAKI-2, Caki-2, TP53 WT", "result": 3.63, "unit": "µM"}, {"measurement": "IC50", "setting": "CAL-12T, TP53 MUT", "result": "> 8", "unit": "µM"}, {"measurement": "IC50", "setting": "CAL-78, TP53 MUT", "result": "> 8", "unit": "µM"}, {"measurement": "IC50", "setting": "CAL-85-1, read-out: NVP- CFC218 IC50 (µM), cell line CAL-85-1, breast, TP53 MUT", "result": "> 8", "unit": "µM"}, {"measurement": "IC50", "setting": "CAMA-1, read-out: NVP- CFC218 IC50 (µM), cell line CAMA-1, breast, TP53 MUT", "result": "> 8", "unit": "µM"}, {"measurement": "IC50", "setting": "CAPAN-1, Capan-1, TP53 MUT", "result": "> 8", "unit": "µM"}, {"measurement": "IC50", "setting": "CAS-1, TP53 MUT", "result": "> 8", "unit": "µM"}, {"measurement": "IC50", "setting": "CFPAC-1, CFPAC-1, TP53 MUT", "result": "> 8", "unit": "µM"}, {"measurement": "IC50", "setting": "CHL-1, CHL-1, TP53 MUT", "result": "> 8", "unit": "µM"}, {"measurement": "IC50", "setting": "CHP-212, CHP-212, TP53 WT", "result": 1.36, "unit": "µM"}, {"measurement": "IC50", "setting": "CMK-11-5, CMK-11-5, TP53 MUT", "result": "> 8", "unit": "µM"}, {"measurement": "IC50", "setting": "COLO 205, COLO 205, TP53 MUT", "result": "> 8", "unit": "µM"}, {"measurement": "IC50", "setting": "COLO 792, TP53 WT", "result": "> 8", "unit": "µM"}, {"measurement": "IC50", "setting": "COLO-679, COLO-679, TP53 WT", "result": 0.91, "unit": "µM"}, {"measurement": "IC50", "setting": "COLO-741, COLO 741, TP53 MUT", "result": "> 8", "unit": "µM"}, {"measurement": "IC50", "setting": "COR-L23, COR-L23, TP53 WT", "result": "> 8", "unit": "µM"}, {"measurement": "IC50", "setting": "COV318, COV318, TP53 MUT", "result": "> 8", "unit": "µM"}, {"measurement": "IC50", "setting": "COV362, COV362, TP53 MUT", "result": "> 8", "unit": "µM"}, {"measurement": "IC50", "setting": "COV434, COV434, TP53 WT", "result": 5.89, "unit": "µM"}, {"measurement": "IC50", "setting": "COV504, read-out: NVP- CFC218 IC50 (µM), cell line COV504, ovary, TP53 MUT", "result": "> 8", "unit": "µM"}, {"measurement": "IC50", "setting": "COV644, TP53 WT", "result": "> 8", "unit": "µM"}, {"measurement": "IC50", "setting": "Calu-3, Calu-3, TP53 MUT", "result": "> 8", "unit": "µM"}, {"measurement": "IC50", "setting": "Calu-6, Calu-6, TP53 MUT", "result": "> 8", "unit": "µM"}, {"measurement": "IC50", "setting": "Caov-3, Caov-3, TP53 MUT", "result": "> 8", "unit": "µM"}, {"measurement": "IC50", "setting": "Capan-2, read-out: NVP- CFC218 IC50 (µM), cell line Capan-2, pancreas, TP53 WT", "result": "> 8", "unit": "µM"}, {"measurement": "IC50", "setting": "ChaGo-K-1, ChaGo-K-1, TP53 MUT", "result": "> 8", "unit": "µM"}, {"measurement": "IC50", "setting": "DB, TP53 MUT", "result": "> 8", "unit": "µM"}, {"measurement": "IC50", "setting": "DBTRG-05MG, TP53 WT", "result": 4, "unit": "µM"}, {"measurement": "IC50", "setting": "DEL, TP53 MUT", "result": "> 8", "unit": "µM"}, {"measurement": "IC50", "setting": "DK-MG, TP53 WT", "result": 2.32, "unit": "µM"}, {"measurement": "IC50", "setting": "DMS-53, DMS 53, TP53 MUT", "result": "> 8", "unit": "µM"}, {"measurement": "IC50", "setting": "DMS-114, DMS 114, TP53 MUT", "result": "> 8", "unit": "µM"}, {"measurement": "IC50", "setting": "DOHH-2, DOHH-2, TP53 WT", "result": 1.18, "unit": "µM"}, {"measurement": "IC50", "setting": "DU-145, DU 145, TP53 MUT", "result": "> 8", "unit": "µM"}, {"measurement": "IC50", "setting": "Daoy, TP53 MUT", "result": "> 8", "unit": "µM"}, {"measurement": "IC50", "setting": "Detroit 562, Detroit 562, TP53 MUT", "result": "> 8", "unit": "µM"}, {"measurement": "IC50", "setting": "EB2, TP53 MUT", "result": "> 8", "unit": "µM"}, {"measurement": "IC50", "setting": "EBC-1, EBC-1, TP53 MUT", "result": "> 8", "unit": "µM"}, {"measurement": "IC50", "setting": "EFE-184, EFE-184, TP53 MUT", "result": "> 8", "unit": "µM"}, {"measurement": "IC50", "setting": "EFM-19, EFM-19, TP53 MUT", "result": "> 8", "unit": "µM"}, {"measurement": "IC50", "setting": "EFO-21, EFO-21, TP53 MUT", "result": "> 8", "unit": "µM"}, {"measurement": "IC50", "setting": "EM-2, TP53 MUT", "result": "> 8", "unit": "µM"}, {"measurement": "IC50", "setting": "ESS-1, read-out: NVP- CFC218 IC50 (µM), cell line ESS-1, endometrium, TP53 MUT", "result": "> 8", "unit": "µM"}, {"measurement": "IC50", "setting": "FU-OV-1, TP53 MUT", "result": "> 8", "unit": "µM"}, {"measurement": "IC50", "setting": "FaDu, TP53 MUT", "result": "> 8", "unit": "µM"}, {"measurement": "IC50", "setting": "Fu97, FU97, TP53 MUT", "result": "> 8", "unit": "µM"}, {"measurement": "IC50", "setting": "G-361, G-361, TP53 WT", "result": 3.16, "unit": "µM"}, {"measurement": "IC50", "setting": "G-401, G-401, TP53 WT", "result": 1.6, "unit": "µM"}, {"measurement": "IC50", "setting": "G-402, G-402, TP53 WT", "result": 2.31, "unit": "µM"}, {"measurement": "IC50", "setting": "GCIY, TP53 MUT", "result": "> 8", "unit": "µM"}, {"measurement": "IC50", "setting": "GI-1, TP53 MUT", "result": "> 8", "unit": "µM"}, {"measurement": "IC50", "setting": "GMS-10, GMS-10, TP53 MUT", "result": "> 8", "unit": "µM"}, {"measurement": "IC50", "setting": "GP2d, TP53 WT", "result": 3.45, "unit": "µM"}, {"measurement": "IC50", "setting": "Granta-519, GRANTA-519, TP53 WT", "result": 3.38, "unit": "µM"}, {"measurement": "IC50", "setting": "H4, TP53 WT", "result": 2.84, "unit": "µM"}, {"measurement": "IC50", "setting": "HARA, TP53 MUT", "result": "> 8", "unit": "µM"}, {"measurement": "IC50", "setting": "HCC15, HCC-15, TP53 MUT", "result": "> 8", "unit": "µM"}, {"measurement": "IC50", "setting": "HCC70, HCC70, TP53 MUT", "result": "> 8", "unit": "µM"}, {"measurement": "IC50", "setting": "HCC78, HCC-78, TP53 MUT", "result": "> 8", "unit": "µM"}, {"measurement": "IC50", "setting": "HCC1500, HCC1500, TP53 WT", "result": 4.89, "unit": "µM"}, {"measurement": "IC50", "setting": "HCC1806, HCC1806, TP53 MUT", "result": "> 8", "unit": "µM"}, {"measurement": "IC50", "setting": "HCC1954, HCC1954, TP53 MUT", "result": "> 8", "unit": "µM"}, {"measurement": "IC50", "setting": "HCC4006, HCC4006, TP53 MUT", "result": "> 8", "unit": "µM"}]}
